Results as given in publication PMC6982718, “Comparative Study on Pharmacokinetics of Four Active Compounds in Rat Plasma after Oral Administration of Raw and Wine Processed Chuanxiong Rhizoma” (Molecules, 2019).

How the values were obtained:
[1] = Pharmacokinetic study in rat plasma after oral administration of RCR and WCR oral liquid medicine; format: in vivo, Sprague-Dawley rats; conditions: n = 6, mean ± SD; for AUC(0-inf) / AUC(0-t) / Cmax / MRT / Tmax / half-life: male, Sprague-Dawley, rat, plasma, po, 24.01 g/kg
Protocol: RCR (300 g) and WCR (300 g) were weighed and soaked in water (6:1, v/w) for 20 min respectively, then refluxed for 30 min and extracted twice. Finally, the extracts of RCR and WCR were filtered, combined, and concentrated to 1.20 g/mL respectively. The concentrated extracts were stored in a refrigerator at 4 °C before use.
Male adult Sprague-Dawley rats (220–250 g) were obtained from the Laboratory Animal Center of Shanxi Medical University (Shanxi, China). The rats were fed in an air-conditioned animal center with a natural light-dark cycle for a week, the temperature was maintained at 22–26 °C and the relative humidity was maintained at 60 ± 10%. All procedures involving the animal were in accordance with the Regulations of Experimental Animal Administration issued by the State Committee of Science and Technology of People’s Republic of China. It is worth noting that all rats were fasted with free access to water for 12 h prior to the experiment.
The collected plasma samples (100 µL) spiked with IS (10 µL) and methanol (10 µL) were vortex-mixed for 5 min. Subsequently, methanol of 300 µL was added for protein precipitation. The mixtures were vortexed for 5 min and then centrifuged at 13,000 rpm for 20 min. Finally, the supernatant was transferred to another clean centrifuge tube and centrifuged again in the same manner. The supernatant of 5 µL was injected into the UHPLC-Q-Exactive-Orbitrap/MS system for analysis.
Twelve rats were randomly divided into two groups (n = 6 per group), an orally administered liquid medicine of RCR and WCR respectively at the same dose of 24.01 g/kg. The blood samples (0.3 mL) from the suborbital vein of each rat were collected in a 1.5 mL heparinized centrifuge tube before dosing and at 0.033, 0.083, 0.16, 0.25, 0.5, 1, 2, 4, 8, 11, 24, 48 h after administration. The blood samples were immediately centrifuged at 13,000 rpm for 10 min and the plasma separated out were transferred to clean centrifuge tubes and stored at −20 °C until analysis.
The pharmacokinetic parameters of the analytes were evaluated using Phoenix WinNonlin software (version 6.0, Pharsight Corporation, CA, USA). The mean plasma concentration-time curves were presented using Graphpad Prism (version 6.0, Graghpad Software, San Diego, CA, USA).

[2] = format: in vitro ADME, rat; conditions: low QC (7.08/5.22/6.55/6.68 ng/mL), n = 6
Protocol: The quality control (QC) samples were prepared by the same procedure described above. Furthermore, low, medium, high concentrations of QC samples of each component were 7.08, 141.50, 1132 ng/mL for butylidenephthalide; 5.22, 104.40, 835.20 ng/mL for ligustilide; 6.55, 131, 1048 ng/mL for senkyunolide A and 6.68, 667.50, 10,680 ng/mL for ferulic acid, respectively.
The stability study of biological samples containing short-term, long-term, freeze-thaw and post-preparation stability could evaluate the influence of sample handling environment and sample storage environment on active component content. Six replicates of QC samples at three concentration levels were analyzed for all stability studies. Short-term stability was evaluated by keeping all QC samples at room temperature for 4 h before processing. Long-term stability was evaluated after all QC samples were stored at −20 °C for 60 days. Freeze-thaw stability of QC samples of each concentration was evaluated after three freeze (−20 °C)-thaw (room temperature) cycles. Post-preparation stability was to observe the stability of the extracted QC samples after waiting for 24 h in the autosampler at 4 °C. The concentration of each QC sample was calculated by the standard curve prepared freshly on the same day. The samples were considered stable when RSD of QC samples at three concentration levels was within ±15%.

SMILES | AUC(0-inf) ([1]; oral RCR 24.01 g/kg) | AUC(0-t) ([1]; oral RCR 24.01 g/kg) | Cmax ([1]; oral RCR 24.01 g/kg) | MRT ([1]; oral RCR 24.01 g/kg) | Tmax ([1]; oral RCR 24.01 g/kg) | half-life ([1]; oral RCR 24.01 g/kg) | AUC(0-inf) ([1]; oral WCR 24.01 g/kg) | AUC(0-t) ([1]; oral WCR 24.01 g/kg) | Cmax ([1]; oral WCR 24.01 g/kg) | MRT ([1]; oral WCR 24.01 g/kg) | Tmax ([1]; oral WCR 24.01 g/kg) | half-life ([1]; oral WCR 24.01 g/kg) | Cl ([1]; oral RCR 24.01 g/kg) | Vd ([1]; oral RCR 24.01 g/kg) | Cl ([1]; oral WCR 24.01 g/kg) | Vd ([1]; oral WCR 24.01 g/kg) | further results
CCC/C=C1\OC(=O)c2ccccc21 [Butylidenephthalide, butylidenephthalide] | 782 ± 252 ng·h/mL | 743 ± 279 ng·h/mL | 288 ± 370 ng/mL | 14.1 ± 6.54 h | 0.25 ± 0.14 h | 11.4 ± 5.88 h | 402 ± 77.1 ng·h/mL | 384 ± 90.9 ng·h/mL | 52.1 ± 16.6 ng/mL | 13.9 ± 3.63 h | 0.27 ± 0.14 h | 11 ± 3.75 h | 36.61 ± 16.33 mL/h | 633.78 ± 424.90 mL | 234.35 ± 44.10 mL/h | 3802.37 ± 1676.69 mL | Post-Preparative Stability RE ([2]; extracted rat plasma, 24 h in autosampler at 4 °C): 6.90%; Bench-Top Stability RE ([2]; rat plasma, room temperature 4 h): 1.88%; Freeze-Thaw Stability RE ([2]; rat plasma, three freeze (−20 °C)-thaw cycles): −10.99%; Long-Term Stability RE ([2]; rat plasma, −20 °C for 60 days): 4.03%
COc1cc(/C=C/C(=O)O)ccc1O [Ferulic Acid, ferulic acid] | 13400 ng·h/mL | 13100 ng·h/mL | 47700 ng/mL | 3.21 ± 1.66 h | 0.12 ± 0.09 h | – | 4620 ± 1290 ng·h/mL | 4460 ± 1240 ng·h/mL | 9530 ± 6500 ng/mL | 4.05 ± 1.07 h | 0.06 ± 0.03 h | – | 24.08 ± 14.39 mL/h | 283.95 ± 234.10 mL | 178.84 ± 54.46 mL/h | 1519.30 ± 1321.97 mL | t1/2 ([1]; oral RCR 24.01 g/kg): 8.57 ± 4.42 h; t1/2 ([1]; oral WCR 24.01 g/kg): 5.33 ± 2.97 h
CCC/C=C1\OC(=O)C2=C1CCC=C2 [Ligustilide, ligustilide] | 4110 ± 285 ng·h/mL | 4080 ± 201 ng·h/mL | 289 ± 8.1 ng/mL | 13.5 ± 1.74 h | 0.22 ± 0.05 h | 8.5 ± 1.41 h | 4040 ± 1480 ng·h/mL | 3310 ± 579 ng·h/mL | 192 ± 8.48 ng/mL | 21.9 ± 11.2 h | 0.3 ± 0.18 h | 14.6 ± 7.56 h | 128.76 ± 19.21 mL/h | 1579.29 ± 363.96 mL | 568.93 ± 184.86 mL/h | 10,580.62 ± 2206.75 mL | –
CCCCC1OC(=O)C2=C1CCC=C2 (stereo not shown) [Senkyunolide A, senkyunolide A] | 1840 ± 501 ng·h/mL | 1640 ± 438 ng·h/mL | 653 ± 581 ng/mL | 18.8 ± 4.24 h | 0.11 ± 0.09 h | 13.4 ± 3.56 h | 861 ± 267 ng·h/mL | 804 ± 279 ng·h/mL | 151 ± 84.3 ng/mL | 9.86 ± 1.53 h | 0.18 ± 0.07 h | 6.32 ± 1.72 h | 392.87 ± 142.41 mL/h | 7378.16 ± 2565.01 mL | – | 8275.68 ± 5216.70 mL | –
